The values that follow come from US20150313228A1, “SYNERGISTIC HERBICIDAL COMBINATIONS AND METHODS OF USE” (priority 2012, published 2015).

The test system of this data set is soybean varieties. Briefly: Metribuzin sensitivity or tolerance phenotype of soybean varieties (Table S-3). The format is in vivo, Glycine max. From the text:
To observe the presence or absence of the “metribuzin sensitivity” or metribuzin tolerance phenotypes, soybean plants are typically exposed in early to mid-vegetative growth stages to one or more doses of metribuzin. Typical doses of metribuzin that can elicit a metribuzin sensitivity phenotype can range from about a 1-fold label application rate of a commercially available metribuzin formulation (i.e. about 0.25 pounds per acre) to about a 3-fold label application rate (i.e. about 0.75 pounds per acre) of a commercially available metribuzin formulation. Commercially available formulations containing metribuzin that can be used include, but are not limited to, Authority®MTZ (FMC Corporation, Philadelphia, Pa., USA); Boundary (Syngenta, Wilmington, Del., USA); Canopy® or Lexone® (Dupont, Wilmington, Del., USA); Sencor® (Bayer Crop Science, Research Triangle Park, N.C., USA); or TriCor® DF (United Phosphorus, Inc., King of Prussia, Pa., USA. In certain embodiments, the commercially available metribuzin formulation used is TriCor® 75DF. In certain embodiments, doses of metribuzin that can elicit a metribuzin sensitivity phenotype can range from about a 1 fold application rate of about 0.25 pounds per acre to about a three fold application rate of 0.75 pounds per acre.
The metribuzin sensitivity phenotype can be observed approximately one week to three weeks after herbicide application in certain soybean varieties that are sensitive to metribuzin. Metribuzin is typically applied during pre and post-emergent vegetative growth stages. In certain embodiments of these methods, metribuzin can be applied to the soil about 2 days prior to soybean seed planting and activated by irrigation of the planted seed to score for the presence of the metribuzin sensitivity phenotype. Genotypes provided herein are especially useful for providing metribuzin tolerance to plants exposed to metribuzin by a pre-emergence soil drench. As discussed herein, the vegetative stages of soybean are as follows: VE (emergence), VC (cotyledon stage), V1 (first trifoliate leaf), V2 (second trifoliate leaf), V3 (third trifoliate leaf), V(n) (nth trifoliate leaf), and V6 (flowering will soon start). As discussed herein, the reproductive stages of soybean are as follows: R1 (beginning bloom), R2 (full bloom), R3 (beginning pod), R4 (full pod), R5 (beginning seed), R6 (full seed), R7 (beginning maturity) and R8 (full maturity). A description of the soybean vegetative and reproductive stages can be found on the World Wide Web (internet) at ag.ndsu.edu/pubs/plantsci/rowcrops/a1174/a1174w.htm (North Dakota State University publication A-1174, June 1999, Reviewed and Reprinted August 2004).
A rating scale that evaluates the degree of metribuzin sensitivity can also be employed to identify “metribuzin sensitive” and “metribuzin tolerant” plants. An exemplary and non-limiting scale for evaluating the Metribuzin sensitivity phenotype is as follows, where a low number corresponds to a “metribuzin tolerance” phenotype and the a high number correlates to a “metribuzin sensitivity” phenotype:
A non-limiting and exemplary list of soybean plants that comprise genomic regions associated with either a metribuzin sensitivity or a metribuzin tolerance phenotype are provided herewith in Table S-3.

Molecules are shown by their SMILES.

`CSc1nnc(C(C)(C)C)c(=O)n1N` [Metribuzin, 4-amino-6-(1,1-dimethylethyl)-3-(methylthio)-1,2,4-triazin-5(4H)-one]: the “METRIBUZIN PHENOTYPE” value is listed as “Tolerant” (soybean variety AG4531); “Tolerant” (soybean variety AG4730); “Sensitive” (soybean variety AG6130); “Sensitive” (soybean variety AG6730); “Tolerant” (soybean variety AG6931); “Sensitive” (soybean variety BURLISON (from TRACY)). Further, the “METRIBUZIN PHENOTYPE” value (soybean variety DASSEL (from PAGODA)) was “Sensitive”; the “METRIBUZIN PHENOTYPE” value (soybean variety H7550) is “Sensitive”; the “METRIBUZIN PHENOTYPE” value (soybean variety PAGODA) is given as “Sensitive”; the “METRIBUZIN PHENOTYPE” value (soybean variety TRACY) is “Sensitive”; the “METRIBUZIN PHENOTYPE” value (soybean variety Tracy-M) is on record as “Tolerant”.
